Reference: PMC3928003 (Cardiovascular Research, 2013)

Molecular target: T1, 5-lipoxygenase (5-LO) (Homo sapiens, UniProt P09917)
T1 sequence (P09917 1-674): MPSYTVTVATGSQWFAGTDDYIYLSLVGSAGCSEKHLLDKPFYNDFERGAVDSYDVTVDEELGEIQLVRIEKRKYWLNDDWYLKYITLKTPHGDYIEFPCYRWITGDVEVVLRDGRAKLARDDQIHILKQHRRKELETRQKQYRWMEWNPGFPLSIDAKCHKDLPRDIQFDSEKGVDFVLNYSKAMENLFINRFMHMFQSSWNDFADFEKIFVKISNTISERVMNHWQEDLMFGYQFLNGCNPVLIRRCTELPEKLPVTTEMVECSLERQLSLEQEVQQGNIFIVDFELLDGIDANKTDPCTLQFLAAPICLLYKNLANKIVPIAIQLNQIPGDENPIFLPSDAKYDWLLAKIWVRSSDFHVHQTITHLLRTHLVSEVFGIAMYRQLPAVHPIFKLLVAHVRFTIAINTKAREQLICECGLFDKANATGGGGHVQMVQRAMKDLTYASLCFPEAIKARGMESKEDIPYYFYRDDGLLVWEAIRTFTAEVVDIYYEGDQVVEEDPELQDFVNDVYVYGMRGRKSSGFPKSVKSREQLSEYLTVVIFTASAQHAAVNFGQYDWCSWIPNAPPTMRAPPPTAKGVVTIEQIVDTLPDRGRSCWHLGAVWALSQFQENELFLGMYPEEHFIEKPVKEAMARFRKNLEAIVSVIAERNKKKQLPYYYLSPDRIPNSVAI
Assay: cell-free 5-LO activity assay with arachidonic acid, products by HPLC
Format: biochemical

IC50: 7.8 to 10 µM
Compound: O=C1Nc2ccccc2/C1=C1/Nc2ccccc2/C1=N\O [I3MO, Indirubin-3′-monoxime]
